Reference: BindingDB's records for doi:10.1016/j.ejmech.2020.112223 (2020)

Assay: Inhibition of Influenza A virus (A/PR 8/34 (H1N1)) hemagglutinin transfected in human HeLa cells assessed as reduction in low pH-indued polykaryon formation preincubated for 15 mins followed by pH 5.2 buffer addition and measured after 5 mins by giemsa staining based microscopic analysis

COC(=O)C[C@H](NC(=O)OC(C)(C)C)C(=O)N(Cc1ccc(F)cc1)C1(C(=O)NCc2ccccc2)CCN(Cc2ccccc2)CC1
IC50: 12 µM
